Results from ChEMBL document CHEMBL4825742, “Novel Histone Deacetylase 6 Inhibitors for Treating Alzheimer's Disease and Cancer” (ACS Med Chem Lett, 2021).

target: T1, Protein deacetylase HDAC6 (Homo sapiens, UniProt Q9UBN7); experiment: Inhibition of human full length HDAC6 expressed in baculovirus expression system using FAM-RHKK(Ac)-NH2 as substrate incubated for 5 hrs by […] endpoint assay
T1 sequence (Q9UBN7 whole entry): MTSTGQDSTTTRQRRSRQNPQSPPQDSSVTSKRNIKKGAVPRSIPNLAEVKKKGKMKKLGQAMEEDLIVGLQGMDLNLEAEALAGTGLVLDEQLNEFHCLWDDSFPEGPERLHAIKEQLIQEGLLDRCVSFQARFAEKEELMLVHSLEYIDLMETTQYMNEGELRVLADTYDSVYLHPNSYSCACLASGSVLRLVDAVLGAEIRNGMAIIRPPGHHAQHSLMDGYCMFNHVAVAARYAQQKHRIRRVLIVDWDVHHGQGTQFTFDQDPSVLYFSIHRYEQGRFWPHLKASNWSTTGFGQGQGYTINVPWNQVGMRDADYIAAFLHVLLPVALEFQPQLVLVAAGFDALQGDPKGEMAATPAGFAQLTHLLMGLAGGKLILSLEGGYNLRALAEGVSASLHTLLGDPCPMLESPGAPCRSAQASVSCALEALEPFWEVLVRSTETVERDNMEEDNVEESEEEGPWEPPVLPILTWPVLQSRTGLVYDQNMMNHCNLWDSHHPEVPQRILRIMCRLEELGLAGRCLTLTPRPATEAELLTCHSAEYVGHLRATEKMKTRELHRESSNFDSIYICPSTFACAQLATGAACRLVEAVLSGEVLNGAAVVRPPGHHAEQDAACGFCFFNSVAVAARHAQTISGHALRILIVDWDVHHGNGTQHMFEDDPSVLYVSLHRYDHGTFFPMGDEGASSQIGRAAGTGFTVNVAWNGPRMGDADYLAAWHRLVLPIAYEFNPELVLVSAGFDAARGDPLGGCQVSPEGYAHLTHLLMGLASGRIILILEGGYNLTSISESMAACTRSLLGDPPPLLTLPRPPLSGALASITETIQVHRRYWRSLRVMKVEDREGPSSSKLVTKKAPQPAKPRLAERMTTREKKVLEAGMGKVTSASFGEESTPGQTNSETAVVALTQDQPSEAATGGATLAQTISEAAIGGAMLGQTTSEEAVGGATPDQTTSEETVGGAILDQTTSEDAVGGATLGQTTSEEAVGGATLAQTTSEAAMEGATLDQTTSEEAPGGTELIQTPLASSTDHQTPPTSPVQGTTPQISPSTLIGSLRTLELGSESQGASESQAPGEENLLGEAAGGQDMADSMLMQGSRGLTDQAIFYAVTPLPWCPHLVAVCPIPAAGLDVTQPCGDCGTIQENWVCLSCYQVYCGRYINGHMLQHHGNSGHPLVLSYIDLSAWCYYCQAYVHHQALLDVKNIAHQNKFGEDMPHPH

Compound	IC50
CN1CC2(CCCCC2)CC[C@H]1Cc1cc(F)cc(C(=O)NO)c1	1 nM
O=C(NO)c1cc(F)c2c(c1)CCn1cccc1-2	1 nM
O=C(NO)c1cc(F)c2c(c1)CCN(C1CCC1)C2	1 nM
Cn1c2c(c3ccccc31)CCN(Cc1ccc(C(=O)NO)cc1F)C2	1 nM
CN1Cc2cc(C(=O)NO)ccc2CN1Cc1ccccc1	1 nM
O=C(NO)c1ccc(CN2CC3(CCOC3)C2)c(F)c1	1 nM
